Results taken from paper PMC5869686 (Journal of the American Chemical Society, 2018).
pIC50: −log10 of the molar value.

Target: succinate dehydrogenase (mitochondrial Sdh, complex II) (Bos taurus, UniProt P35720+Q3T189+Q95123)
Assay: colorimetric mitochondrial complex II activity assay
Type: biochemical

Sequence of succinate dehydrogenase (mitochondrial Sdh, complex II) (P35720 30-169): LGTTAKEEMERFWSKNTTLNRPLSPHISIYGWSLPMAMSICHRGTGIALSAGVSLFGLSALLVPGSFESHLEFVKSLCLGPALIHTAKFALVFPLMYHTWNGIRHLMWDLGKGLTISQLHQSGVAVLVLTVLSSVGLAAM
Sequence of succinate dehydrogenase (mitochondrial Sdh, complex II) (Q3T189 29-280): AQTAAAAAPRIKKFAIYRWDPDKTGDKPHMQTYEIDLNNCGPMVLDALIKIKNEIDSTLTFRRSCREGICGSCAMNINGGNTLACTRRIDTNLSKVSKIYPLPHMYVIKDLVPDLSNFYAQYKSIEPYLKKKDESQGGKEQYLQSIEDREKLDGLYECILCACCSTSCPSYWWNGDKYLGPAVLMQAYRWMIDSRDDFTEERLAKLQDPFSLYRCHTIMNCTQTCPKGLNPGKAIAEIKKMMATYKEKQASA
Sequence of succinate dehydrogenase (mitochondrial Sdh, complex II) (Q95123 56-158): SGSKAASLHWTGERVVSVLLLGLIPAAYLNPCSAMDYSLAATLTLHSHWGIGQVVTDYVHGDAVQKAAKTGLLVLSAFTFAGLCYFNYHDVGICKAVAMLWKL
Sequence of succinate dehydrogenase (mitochondrial Sdh, complex II) (P31039 44-665 partner): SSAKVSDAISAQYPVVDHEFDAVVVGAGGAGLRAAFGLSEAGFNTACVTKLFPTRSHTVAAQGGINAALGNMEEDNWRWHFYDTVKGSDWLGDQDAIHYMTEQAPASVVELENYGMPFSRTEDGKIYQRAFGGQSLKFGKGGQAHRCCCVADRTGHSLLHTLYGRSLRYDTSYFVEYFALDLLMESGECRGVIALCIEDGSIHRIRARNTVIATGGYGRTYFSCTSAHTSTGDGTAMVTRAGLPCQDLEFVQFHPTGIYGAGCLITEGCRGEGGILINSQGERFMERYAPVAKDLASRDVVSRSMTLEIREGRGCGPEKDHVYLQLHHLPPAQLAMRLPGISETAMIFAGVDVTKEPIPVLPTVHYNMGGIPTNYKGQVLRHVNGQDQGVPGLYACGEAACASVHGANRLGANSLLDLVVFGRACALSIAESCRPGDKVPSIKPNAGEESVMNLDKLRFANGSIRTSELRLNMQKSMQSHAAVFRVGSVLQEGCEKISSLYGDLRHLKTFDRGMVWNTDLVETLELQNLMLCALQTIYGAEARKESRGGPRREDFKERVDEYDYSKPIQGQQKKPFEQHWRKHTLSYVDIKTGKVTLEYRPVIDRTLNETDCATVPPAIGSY

Question: promysalin [(-)-1] was tested. Which pIC50 did it give?
Answer: 5.60
